Our source for the IC50 values is BindingDB's records for doi:10.1016/j.bmcl.2004.04.008 (Fudan University, 2004).

Test [1] can be described thus: Inhibitory concentration against SO561945 (HIV 1 mutant RT) viral infection of MT-4 cells.
Test [2] is described as follows: Concentration required to protect the cell against HIV-1 strain IIIB viral cytopathogenicity by 50% in MT-4 cells. In general terms: Protection from cytopathic effect is a common read-out in antiviral testing.
The nature of test [3]: Inhibitory concentration against SO561945 (HIV 1 mutant RT) viral infection of MT-4 cells. The source holds these as a separate data set.

For `CC(C)c1c(Cc2cccc3ccccc23)nc(SCC(=O)c2ccc(F)cc2)[nH]c1=O`, the IC50 (in general, the concentration at which inhibition is half-maximal) in test [1] was found to be 188000 nM; in test [2] it was 78 nM.
The matching figures for `COC(=O)CSc1nc(Cc2cccc3ccccc23)c(C(C)C)c(=O)[nH]1`: greater than 179000 nM and 4490 nM.
The like results for `O=c1[nH]cnc2c1ncn2[C@H]1CC[C@@H](CO)O1` [BMY-40900] were, in that order, 7150 nM and 5370 nM.
Consider `COc1ccc(C(=O)CSc2nc(Cc3cccc4ccccc34)c(C)c(=O)[nH]2)cc1`, for which the IC50 in test [3] was determined as 370 nM.
On to `CCOC(=O)CSc1nc(Cc2cccc3ccccc23)c(C(C)C)c(=O)[nH]1`, for which the IC50 in test [1] was greater than 175000 nM; in test [3], 1410 nM.
In test [3], `CC(=O)CSc1nc(Cc2cccc3ccccc23)c(C)c(=O)[nH]1` gave an IC50 of 1120 nM.
On the same count and under the same terms, the same measure for `CCc1c(Cc2cccc3ccccc23)nc(SCC(=O)c2ccc(C)cc2)[nH]c1=O`: 320 nM.
With `Cc1c(Sc2ccccc2)n(COCCO)c(=O)[nH]c1=O`, the IC50 is greater than 405000 nM in test [1] and 5060 nM in test [2].
As to `Cc1ccc(C(=O)CSc2nc(Cc3cccc4ccccc34)c(C(C)C)c(=O)[nH]2)c(C)c1`, the half-maximal inhibitory concentration (IC50) turned out to be 2670 nM in test [1] and 240 nM in test [3].
Regarding `COc1ccc(C(=O)CSc2nc(Cc3cccc4ccccc34)c(C(C)C)c(=O)[nH]2)cc1`, the results for the 50% inhibitory concentration (IC50) in test [1] and in test [2] were 5820 nM and 30 nM, respectively.
With `CCc1c(Cc2cccc3ccccc23)nc(SCC(=O)OC)[nH]c1=O`, the half-inhibitory concentration (IC50) in test [3] is 4720 nM.
With `CCc1c(Cc2cccc3ccccc23)nc(SCC(=O)c2ccc(Cl)cc2)[nH]c1=O`, the IC50 in test [1] was greater than 56000 nM; in test [2], 260 nM.
For the molecule `COC(=O)CSc1nc(Cc2cccc3ccccc23)c(C)c(=O)[nH]1`, the IC50 in test [3] turned out to be 6990 nM.
For `CC(=O)CSc1nc(Cc2cccc3ccccc23)c(C(C)C)c(=O)[nH]1`, the 50% inhibitory concentration (IC50) in test [1] is greater than 43100 nM; in test [2], 410 nM.
As for `Cc1c(Cc2cccc3ccccc23)nc(SCC(=O)c2ccc(F)cc2)[nH]c1=O`, the midpoint of inhibition in test [3], the IC50, lay at 180 nM. In other words, the sub-micromolar range.
For `Cc1c(Cc2cccc3ccccc23)nc(SCC(=O)c2ccc(Cl)cc2)[nH]c1=O`, half-maximal inhibition in test [3] (IC50) required 550 nM.
Consider `CCc1c(Cc2cccc3ccccc23)nc(SCC(=O)c2ccc(OC)cc2)[nH]c1=O`, for which the IC50 in test [1] was greater than 178000 nM; in test [3], 45 nM.
As for `Cc1ccc(C(=O)CSc2nc(Cc3cccc4ccccc34)c(C(C)C)c(=O)[nH]2)cc1`, in test [3], the IC50 is 240 nM.
`CCOC(=O)CSc1nc(Cc2cccc3ccccc23)c(C)c(=O)[nH]1` gave a concentration for half-maximal inhibition (IC50) in test [3] of 7000 nM.
The molecule `Cc1ccc(C(=O)CSc2nc(Cc3cccc4ccccc34)c(C)c(=O)[nH]2)cc1` returned an IC50 in test [3] of 670 nM.
`CC(C)c1c(Cc2cccc3ccccc23)nc(SCC(=O)c2ccccc2)[nH]c1=O`: the concentration for half-maximal inhibition (IC50) in test [1] was 19600 nM; in test [2], 46 nM.
The matching figures for `CCc1c(Cc2cccc3ccccc23)nc(SCC(=O)c2ccc(F)cc2)[nH]c1=O`: 24200 nM and 78 nM.
`CC(C)c1c(Cc2cccc3ccccc23)nc(SCC(=O)c2ccc(Cl)cc2)[nH]c1=O`: the figures for the IC50 in test [3] and in test [2] were greater than 270000 nM and 320 nM, respectively.
